Measured values taken from US20130183459A1, “DEVICE AND METHOD FOR I[…] AND COUNTING MICROBES AND DETERMINING ANTIMICROBIAL SENSITIVITY” (priority 2011, published 2013).

System: E. Coli B
Assay: Antimicrobial sensitivity test by resistance signature (pulsed-voltage sampling)
Type: cell-based
Conditions: 0.9 mL of 10^3 CFU/mL E. Coli B in LB Broth + 0.1 mL antibiotic, room temperature; control slope remains negative; FIGS. 7A-7D
Method: FIGS. 7A-7D depict signatures of microbial sample of 0.9 mL of a concentration of 10^3 CFU/mL of two-hour E. Coli B treated with 0.1 mL of antibiotics or antimicrobials and control samples in the absence thereof. What is common to all FIGS. 7A-7D is the slope for signatures with antibiotics or antimicrobials become positive, i.e., the resistance of the microbial sample increases, upon addition of the antibiotic or antimicrobial. The slope of the control samples remains negative.
In further detail, a difference in the degree of the slope change for the signature can be observed. Such differences are due to the type of antibiotic or antimicrobial, and its mechanism of action. For example, sulfamethoxazole, FIG. 7C, causes inhibition of DNA synthesis in the cell, thereby aiming essential cell functions. In contrast, azithromycin, FIG. 7B, inhibits […] in a bacterium, thereby acting on latent cell functions.
An overnight bacterial culture of E. coli B with a concentration of around 10^9 cells which had attained room temperature were diluted using LB Broth which had also attained room temperature to a final concentration of 10^3 cells. 0.9 ml of this solution was then placed into one sensor well which was connected to lead #1 of a reader unit. An additional 0.9 ml of the bacteria was placed into a second sensor well which was connected to lead #2 of a reader unit. […]

Cc1cc(NS(=O)(=O)c2ccc(N)cc2)no1 [sulfamethoxazole]
slope of the resistance signature upon addition of the antibiotic or antimicrobial: steeper than for azithromycin
